Experimental data from US10889556B2, “Compositions and methods for inhibiting influenza RNA polymerase PA endonuclease” (The Regents of the University of California, priority 2016, dated 2021).

Molecular target: influenza PA endonuclease (Influenza A virus, UniProt C3W5S0)
Experiment: biochemical
Parameters: species or system Pandemic H1N1 influenza A
Details: not given

Compound	IC50 [nM]	LE
O=c1cccccc1O [compound 201]	8800	–
Cc1cc(=O)c(O)cn1C1CCOCC1 [Compound 51]	730 ± 70	–
CS(=O)(=O)NCc1cc(=O)c(O)co1 [Compound 30]	4800 ± 700	–
COc1cc(C)c(C(=O)O)cc(O)c1=O [Compound 105]	180	0.66
CC(C)c1cccc(=O)c(O)c1 [E4]	11000	–
O=C(O)c1[nH]c(-c2ccc(-c3nnn[nH]3)cc2)cc(=O)c1O [compound 148, 6-(4-(1H-tetrazol-5-yl)phenyl)-3-hydroxy-4-oxo-1,4-dihydropyridine-2-carboxylic acid]	1.9	–
CN(Cc1cc(=O)c(O)co1)c1ccncc1 [Compound 41, 5-Hydroxy-2-((methyl(pyridin-4-yl)amino)methyl)-4H-pyran-4-one]	> 100000	–
CCOC(=O)c1c(C)n(-c2ccc(Oc3ccccc3)cc2)cc(O)c1=O [compound 68, Ethyl 5-hydroxy-2-methyl-4-oxo-1-(4-phenoxyphenyl)-, 4-dihydropyridine-3-carboxylate]	5200 ± 800	–
O=C(O)c1ccc(O)c(O)c1 [Compound 107]	220	0.83
O=c1cc(CNCc2ccccc2)occ1O [Compound 26, 2-((Benzylamino)methyl)-5-hydroxy-4H-pyran-4-one]	2700 ± 400	–
CN(Cc1cc(=O)c(O)co1)c1ccc(F)cc1 [Compound 39, 2-(((4-Fluorophenyl)(methyl)amino)methyl)-5-hydroxy-4H-pyran-4-one]	1800 ± 200	–
O=C(O)c1[nH]c(-c2ccc(Oc3ccccc3)cc2)cc(=O)c1O [compound 143, 3-Hydroxy-4-oxo-6-(4-phenoxyphenyl)-1,4-dihydropyridine-2-carboxylic acid]	22	–
O=C(O)c1ccc(-c2cc(=O)c(O)c(C(=O)O)[nH]2)cc1 [compound 144, 6-(4-carboxyphenyl)-3-hydroxy-4-oxo-1,4-dihydropyridine-2-carboxylic acid]	1.6	–
O=C(O)c1[nH]c(-c2ccccc2)cc(=O)c1O [compound 142, 3-Hydroxy-4-oxo-6-phenyl-1,4-dihydropyridine-2-carboxylic acid]	5.6	–
O=c1cc[nH]c(-c2ncco2)c1O [compound 151]	71	–
Cc1c(O)c(=O)ccn1C1CCCCC1 [Compound 48, 1-Cyclohexyl-3-hydroxy-2-methylpyridin-4(1H)-one]	14000 ± 3000	–
Cc1c(O)c(=O)ccn1-c1ccccc1 [Compound 45, 3-Hydroxy-2-methyl-1-phenylpyridin-4(1H)-one]	18000 ± 2000	–
CNC(=O)c1occc(=O)c1O [A11]	4100	–
CN(Cc1cc(=O)c(O)co1)c1cccc(F)c1 [Compound 40, 2-(((3-Fluorophenyl)(methyl)amino)methyl)-5-hydroxy-4H-pyran-4-one]	3200 ± 100	–
Cc1cc(O)c(=O)c(O)cc1-c1ccccc1 [compound 213, 2,7-Dihydroxy-4-methyl-5-phenylcyclohepta-2,4,6-trien-1-one]	5	–
CCOC(=O)c1c(C)n(-c2ccccc2)cc(O)c1=O [compound 67, Ethyl 5-hydroxy-2-methyl-4-oxo-1-phenyl-1,4-dihydropyridine-3-carboxylate]	5300 ± 400	–
CNC(=O)c1[nH]ccc(=O)c1O [B4]	13000	–
O=C(O)c1cccc(-c2cc(=O)c(O)c(C(=O)O)[nH]2)c1 [compound 145, 6-(3-carboxyphenyl)-3-hydroxy-4-oxo-1,4-dihydropyridine-2-carboxylic acid]	2	–
COc1cccc(CNC(=O)c2c(C)occ(O)c2=O)c1 [Compound 18, 5-Hydroxy-N-(3-methoxybenzyl)-2-methyl-4-oxo-4H-pyran-3-carboxamide]	22100 ± 600	–
Cc1cccc(-c2cc(=O)c(O)c(C(=O)O)[nH]2)c1 [compound 146, 3-hydroxy-4-oxo-6-(m-tolyl)-1,4-dihydropyridine-2-carboxylic acid]	4.8	–
Cc1occ(O)c(=O)c1C(=O)NCCc1ccccc1 [Compound 13, 5-Hydroxy-2-methyl-4-oxo-N-phenethyl-4H-pyran-3-carboxamide]	11300 ± 1200	–
O=c1cc(Br)[nH]c(-c2nnn[nH]2)c1O [compound 133, 6-Bromo-3-hydroxy-2-(1H-tetrazol-5-yl)pyridin-4(1H)-one]	63	–

Same assay, conditions: IC50 value

Compound	IC50 [nM]
O=C(O)c1[nH]c(Br)cc(=O)c1O [compound 131, 6-Bromo-3-hydroxy-4-oxo-1,4-dihydropyridine-2-carboxylic acid]	25
